# What was measured:
# tilapia NIL cells [1] = assay: SL release in primary NIL cell culture (ELISA); format: cell-based, Nile tilapia (Oreochromis niloticus); conditions: for SL release, dose dependence: mean ± SEM (N = 3)
# Description: (§1) To examine the direct effects of GCG on SL release and gene expression in the pituitary, tilapia NIL cells were prepared by the controlled trypsin/DNase II digestion method as described previously ([30]). After that, NIL cells were seeded in poly-D-lysine precoated 24-well plates at ~1.5 × 10^6 cells/mL/well and incubated with test substances for the duration as indicated. After drug treatment, SL release in conditioned medium was immediately determined by the enzyme-linked immunosorbent assay (ELISA) with a detectable range from 0.5 to 500 ng/mL for SL. The assay was optimized in our laboratory by utilizing a polyclonal antibody against tilapia SL ([31]) and a SL-biotin conjugate (GenScript, Nanjing, China). Meanwhile, the cells were rinsed with cold PBS before being lysed by TRIzol reagent (Life Technologies) to measure SL gene expression. After cDNA synthesis, qPCR assays were performed using the primers specific for tilapia SL (forward primer: 5’ […] 3’ and reverse primer: 5’ […] 3’). The same qPCR conditions were maintained as described above, and gene expression levels were analyzed using the 2^−ΔΔCT method. In these experiments, β-actin was used as an internal control for normalizing genes of interest. It has been reported that β-actin is used to normalize SL gene expression in tilapia ([14]), goldfish ([32]), and red drum ([33]).
# (§2) For qPCR and ELISA assays, NIL cells were prepared from 30–40 individual fish in each experimental run. For cAMP and IP3 measurements, NIL cells were prepared from ~30 individual fish in each experimental run. For Ca^2+ signal measurements, NIL cells were prepared from 10–12 individual fish. For the Western blot analysis, NIL cells were prepared from ~30 individual fish in each experimental run. Three biological replicates were analyzed, and four technical repeats were performed per sample. All results are expressed as the mean ± SEM (N = 3) and analyzed with ANOVA followed by post-hoc Bonferroni’s test for multiple comparisons. A value of P < 0.05 was regarded as statistically significant. All analyses were performed with GraphPad Prism Software, Inc (San Diego, CA).
# fish glucagon = conditions: ref [18]; cited from earlier work
# Description: Male Nile tilapia (O. niloticus) with a bodyweight range of 45-55 g were purchased from local aquaria and maintained in aerated 300-liter aquaria at 28°C under 12 h dark/12 h light photoperiod. During tissue sampling, the fish were sacrificed by spinosectomy after anesthesia with 0.05% MS222 (Sigma, St Louis, MO) according to the procedures approved by the Animal Ethics Committee of Sichuan University. The tilapia and human GCGs and the des-His1-[Nle9-Ala11-Ala16] GCG antagonist were synthesized by GL Biochem (Shanghai, China).
# tilapia NIL cells [2] = assay: SL gene expression in primary NIL cell culture (qPCR); format: cell-based, Nile tilapia (Oreochromis niloticus); conditions: for effect on basal SL gene expression: 10 µM test substance
# Description: as §1, §2
# rat hepatocytes [3] = conditions: ref [57]; cited from earlier work
# rat hepatocytes [4] = conditions: ref Mine et al. ([59]); cited from earlier work
# From the text: Although pituitary GCG-mediated molecular signaling pathways remain largely unknown, GCG action in fish hepatocytes is mediated by the AC/cAMP/PKA pathway ([52], [55]). These findings promote us to investigate similar signaling mechanisms involved in GCGb action in tilapia pituitary cells. […] In contrast, both basal and GCGb-induced SL release and gene expression ...
# tilapia GCGRb = assay: CRE-luciferase reporter assay, HEK293 cells stably expressing tilapia GCGRb; format: cell-based, Nile tilapia (Oreochromis niloticus); conditions: HEK293, CRE-luciferase (cAMP), 24 h treatment, 37°C, Luc ratio to Renilla, N = 3
# Description: (§3) The open reading frames (ORFs) of tilapia Gcgra and Gcgrb were subcloned in the pcDNA3.1 (+) expression vector (Invitrogen) using high-fidelity Taq DNA polymerase (TOYOBO, Japan) and then HEK293 cell lines with stable expression of pcDNA3.1-GCGRa, and pcDNA3.1-GCGRb, respectively, were established in the presence of 500 µg/mL […] (Invitrogen). The expression of Gcgra and Gcgrb transcripts in these stably transfected cell lines was confirmed by qPCR, and the colonies with the same levels of Gcgra and Gcgrb mRNA expression were selected for subsequent studies. After that, HEK293 cells were co-transfected with the cAMP response element (CRE)-luciferase reporter plasmid, and Renilla luciferase plasmid (pTK-RL) (Promega, Madison, WI), encoding the Renilla luciferase protein, as the internal control using Lipofectamine in Opti-MEM (Invitrogen). […] The luciferase activity of cellular lysates was determined using a Dual-Glo luciferase assay kit (Promega), and the signal was read using a microplate reader (Fluostar OPTIMA, BMGLabtech). The luciferase activities in each treatment group were expressed as relative fold increase compared with the control group.
# (§4) Figure 3 Functional characterization of tilapia GCGRa and GCGRb expressed in HEK293 cells. […] All results are expressed as the mean ± SEM (N = 3).
# tilapia GCGRa = assay: CRE-luciferase reporter assay, HEK293 cells stably expressing tilapia GCGRa; format: cell-based, Nile tilapia (Oreochromis niloticus)
# Description: as §3, §4
# GCGRb = conditions: ref [42]; cited from earlier work
# From the text: Identification of multiple types of Gcgrs raises a question of whether a given physiological response is mediated by either a specific receptor or multiple types of receptors. We examined the functional similarity and difference of the two tilapia GCGRs.
# [5] = 1 µM test substance with GCGb 10 nM, 24 h
# [6] = 5 µM test substance with GCGb 10 nM, 24 h
# [7] = 50 nM test substance with GCGb 10 nM (duration not given)
# [8] = 10 µM test substance with GCGb 10 nM, 24 h
# [9] = 5 µM test substance with GCGb 10 nM (duration not given)
molecule,measurement,setting,value
des-His1-[Nle9-Ala11-Ala16] GCG antagonist,effect on GCGb-stimulated SL release,tilapia NIL cells [1]; [5],stimulatory effect could be blocked
same,block of the action of fish glucagon,fish glucagon,could block the action of fish glucagon
CN([C@@H](Cc1ccc(OS(=O)(=O)c2cccc3cnccc23)cc1)C(=O)N1CCN(c2ccccc2)CC1)S(=O)(=O)c1cccc2cnccc12 [KN62],effect on GCGb-stimulated SL release,tilapia NIL cells [1]; [6],abolished
same,effect on GCGb-stimulated SL mRNA expression,tilapia NIL cells [2]; [6],abolished
C1CCC[C@H]2CCCN3CC[C@@H](CCCCCC[C@@H]4CCCN5CC[C@@H](CC1)O[C@@H]45)O[C@@H]23 [xestospongin C],effect on GCGb-stimulated SL release,tilapia NIL cells [1]; [6],suppressed
same,effect on basal SL release,"tilapia NIL cells [1]; 5 µM test substance, 24 h",suppressed
same,effect on GCGb-stimulated SL mRNA expression,tilapia NIL cells [2]; [6],suppressed
same,effect on basal SL mRNA levels,"tilapia NIL cells [2]; 5 µM test substance, 24 h",suppressed
C/C=C(/C)C(=O)O[C@H]1C(C)=C2[C@H]([C@@H]1OC(=O)CCCCCCC)[C@@](C)(OC(C)=O)C[C@H](OC(=O)CCC)[C@@]1(O)[C@H]2OC(=O)[C@@]1(C)O [thapsigargin],effect on GCGb-stimulated SL release,tilapia NIL cells [1]; [7],effective in blocking the stimulatory effect of GCGb on SL release and mRNA expression
same,effect on GCGb-stimulated SL mRNA expression,tilapia NIL cells [2]; [7],effective in blocking the stimulatory effect of GCGb on SL release and mRNA expression
Clc1ccc(C(c2ccc(Cl)cc2)n2cc[n+](CC(OCc3ccc(Cl)cc3Cl)c3ccc(Cl)cc3Cl)c2)cc1 (stereo not shown) [calmidazolium],effect on GCGb-stimulated SL release,tilapia NIL cells [1]; [5],abolished
same,effect on GCGb-stimulated SL mRNA expression,tilapia NIL cells [2]; [5],abolished
"GCG: Glucagon, a 29 amino acid peptide hormone derived from proglucagon (cited work, species not stated)",production of IP3,rat hepatocytes [3],induce the production of IP3
same,Ca^2+ release,rat hepatocytes [4],can mediate Ca^2+ release from both intracellular Ca^2+ store and extracellular Ca^2+ influx
C=C[C@@]1(C)CC(=O)[C@]2(O)[C@@]3(C)[C@@H](O)CCC(C)(C)[C@@H]3[C@H](O)[C@H](OC(C)=O)[C@@]2(C)O1 [forskolin],"SL release, dose dependence","tilapia NIL cells [1]; 0.1–100 nM, 24 h",dose-dependently stimulated SL release
COc1c(C[C@@H](C)OC(=O)Oc2ccc(O)cc2)c2c3c(C[C@@H](C)OC(=O)c4ccccc4)c(OC)c(=O)c4c(O)cc(OC)c(c5c(OC)cc(O)c(c1=O)c52)c43 [calphostin C],effect on GCGb-stimulated SL release,"tilapia NIL cells [1]; 20 nM test substance with GCGb 10 nM, 24 h",neither compound was able to block GCGb stimulated SL release
"human GCG: human glucagon, synthesized by GL Biochem",EC50,tilapia GCGRb,6.37 nM
same,potency at tilapia GCGRa relative to tilapia GCGa (fold less potent),tilapia GCGRa; fold less potent than tilapia GCGa,80 fold
same,EC50,"tilapia GCGRa; tilapia GCGRa, HEK293, CRE-luciferase (cAMP), 24 h treatment, 37°C, Luc ratio to Renilla, N = 3",240 nM
Cc1cc(C)c(S(=O)(=O)Nc2cccc(C(F)(F)F)c2)c(C)c1 [m-3M3FBS],"SL release, dose dependence",tilapia NIL cells [1]; 0.01–10 µM,dose-dependently stimulated SL release
Cl.c1ccc(C2CCCC2NC2=NCCCCCCCCCCC2)cc1 (stereo not shown) [MDL12330A],effect on GCGb-stimulated SL release,tilapia NIL cells [1]; [8],blocked
same,effect on basal SL release,"tilapia NIL cells [1]; 10 µM test substance, 24 h",blocked the basal levels
same,effect on GCGb-stimulated SL mRNA expression,tilapia NIL cells [2]; [8],blocked
same,effect on basal SL gene expression,tilapia NIL cells [2]; 24 h,blocked the basal levels
COc1ccc2c(c1)CC[C@@H]1[C@@H]2CC[C@]2(C)[C@@H](NCCCCCCN3C(=O)C=CC3=O)CC[C@@H]12 [U73122],effect on GCGb-stimulated SL release,tilapia NIL cells [1]; [8],blocked the GCGb-stimulated SL release and mRNA expression
same,effect on GCGb-stimulated SL mRNA expression,tilapia NIL cells [2]; [8],blocked the GCGb-stimulated SL release and mRNA expression
COC(=O)C1=C(C)NC(C)=C(C(=O)OC)C1c1ccccc1[N+](=O)[O-] [nifedipine],effect on GCGb-stimulated SL release,tilapia NIL cells [1]; [9],effective in blocking the stimulatory effect of GCGb on SL release and mRNA expression
same,effect on GCGb-stimulated SL mRNA expression,tilapia NIL cells [2]; [9],effective in blocking the stimulatory effect of GCGb on SL release and mRNA expression
CN(C)CCCn1cc(C2=C(c3c[nH]c4ccccc34)C(=O)NC2=O)c2ccccc21 [GF109203X],effect on GCGb-stimulated SL release,"tilapia NIL cells [1]; 20 µM test substance with GCGb 10 nM, 24 h",neither compound was able to block GCGb stimulated SL release
mouse GCG: mouse glucagon (cited work),activation of zebrafish GCGRb,GCGRb,potently activated
O=S(=O)(NCCNC/C=C/c1ccc(Br)cc1)c1cccc2cnccc12 [H89],effect on GCGb-stimulated SL release,tilapia NIL cells [1]; [8],blocked
same,effect on basal SL release,"tilapia NIL cells [1]; 10 µM test substance, 24 h",blocked the basal levels
same,effect on GCGb-stimulated SL mRNA expression,tilapia NIL cells [2]; [8],blocked
same,effect on basal SL gene expression,tilapia NIL cells [2]; 24 h,blocked the basal levels
